Results on 43 substances are retold here after patent US11214803B2, “Modulators of YAP1 expression” (Ionis Pharmaceuticals, Inc., priority 2019, dated 2022).

The data set has as its system Yap1 mRNA. The data set can be described thus: Antisense inhibition of human Yap1 in A-431 cells by cEt gapmers, single dose (Example 3, RTS36584). Type of data set: cell-based. The procedure, abridged:
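A-431 cells were treated by free uptake with 2,000 nM modified oligonucleotide (3-10-3 cEt gapmers, full phosphorothioate, 5-methylcytosines) for about 48 hours. Yap1 mRNA was quantified by real-time RT-PCR, normalized to RiboGreen total RNA, and expressed as % of untreated control; asterisked values mark oligonucleotides targeting the amplicon region.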

Where [1] appears, read: Table 26, Yap1 mRNA by 3-10-3 cEt gapmers targeting SEQ ID NO.: 1, and 2, percent of untreated control.
[2] abbreviates: Table 11, A-431 cells, 5,000 cells per well, free uptake, 2,000 nM oligonucleotide, approx. 48 hours, primer probe set RTS36584, Yap1 mRNA normalized to RIBOGREEN, percent of untreated control.
[3] abbreviates: Table 12, A-431 cells, 5,000 cells per well, free uptake, 2,000 nM modified oligonucleotide, approx. 48 hours, RTS36584, normalized to RIBOGREEN, Yap1 mRNA relative to untreated control cells.
The mark [4] stands for this setting: Table 34, Yap1 mRNA as percent of untreated control, 3-10-3 cEt gapmers targeting SEQ ID NO: 1 and 2, single dose.
[5] abbreviates: Table 13, A-431 cells, 5,000 cells per well, free uptake, 2,000 nM modified oligonucleotide, approx. 48 hours, RTS36584, normalized to RIBOGREEN, Yap1 mRNA relative to untreated control cells.
Setting [6] is: Table 35, Yap1 mRNA as percent of untreated control, 3-10-3 cEt gapmers targeting SEQ ID NO: 1 and 2, single dose.
[7] abbreviates: Table 9, A-431 cells, 5,000 cells per well, free uptake, 2,000 nM, approximately 48 hours, RTS36584, normalized to RIBOGREEN, Yap1 mRNA relative to untreated control cells.
Setting [8] is: Table 29, Yap1 mRNA as percent of untreated control, 3-10-3 cEt gapmers targeting SEQ ID NO.: 1, and 2.
[9] abbreviates: Table 28, Yap1 mRNA as percent of untreated control, 3-10-3 cEt gapmers targeting SEQ ID NO.: 1, and 2.
Where [10] appears, read: Table 10, A-431 cells, 5,000 cells per well, free uptake, 2,000 nM oligonucleotide, approx. 48 hours, primer probe set RTS36584, Yap1 mRNA normalized to RIBOGREEN, percent of untreated control.
The mark [11] stands for this setting: Table 8, A-431 cells, 5,000 cells per well, free uptake, 2,000 nM, approximately 48 hours, RTS36584, normalized to RIBOGREEN, Yap1 mRNA relative to untreated control cells.

Strand notation (5' to 3'): a small letter for the sugar, then the base; units joined by * are phosphorothioate-linked, units joined directly phosphodiester-linked; [ ] holds rarer units or linkages, { } end groups; capitals alone tell only the bases. k = constrained ethyl (cEt); [5mC] = 5-methylcytosine; d = 2'-deoxy (DNA)

For the substance “1075628 (antisense k[5mC]*k[5mC]*kG*d[5mC]*dA*dA*dA*dA*dT*dA*dT*dT*dA*kA*kT*kT) [compound 1075628]”, the “YAP1 (% UTC)” value under setting [1] is 118 % UTC. “958613 (antisense k[5mC]*k[5mC]*kT*dG*dA*dA*dG*d[5mC]*d[5mC]*dG*dA*dG*dT*kT*k[5mC]*kA) [Compound 958613]”: the “YAP1 (% UTC)” value under setting [2] amounted to 15 % UTC. On to “1075308 (antisense kA*kA*kT*dT*dA*dA*dA*d[5mC]*dG*dA*dA*dA*d[5mC]*kA*k[5mC]*kG) [compound 1075308]”, for which, under setting [1], the “YAP1 (% UTC)” value was determined as 97 % UTC.

With “958744 (antisense kG*k[5mC]*kA*dT*dA*d[5mC]*dT*dG*dG*dT*dG*d[5mC]*d[5mC]*k[5mC]*k[5mC]*kA) [Compound 958744]”, the “YAP1 (% UTC)” value under setting [3] was 45 % UTC. Turning to “1074868 (kG*kT*kA*d[5mC]*d[5mC]*dT*dA*dA*d[5mC]*dA*dT*dA*dT*kG*kA*kG; antisense) [compound 1074868]”, the “YAP1 (% UTC)” value under setting [4] is 74 % UTC. The same measure, in the same setting: the value for “1075284 (antisense k[5mC]*kT*kT*dT*dT*d[5mC]*dG*dA*dA*dT*dA*dT*dA*kG*kA*kA) [compound 1075284]” was 76 % UTC. Consider “958510 (kT*kA*k[5mC]*d[5mC]*dA*d[5mC]*dA*d[5mC]*dT*dA*dT*dT*dA*kT*kA*kA; antisense) [Compound 958510]”, for which, under setting [5], the “YAP1 (% UTC)” value came to 43 % UTC.

Take “1075541 (kG*k[5mC]*kT*d[5mC]*dA*dA*dA*dA*d[5mC]*dT*dG*dA*d[5mC]*kA*kT*kA; antisense) [compound 1075541]”: the “YAP1 (% UTC)” value under setting [6] amounted to 47 % UTC.

As to “958641 (antisense kA*kG*k[5mC]*dT*dA*d[5mC]*dA*dG*dA*dG*d[5mC]*dT*dT*kA*kA*k[5mC]) [Compound 958641]”, under setting [7], the “YAP1 (% UTC)” value amounted to 102 % UTC.

Consider “1074383 (kT*k[5mC]*kA*dA*dG*dG*dT*dA*dG*dT*d[5mC]*dT*dG*kG*kG*kA; antisense) [compound 1074383]”, for which the “YAP1 (% UTC)” value under setting [8] came to 40 % UTC.

For “958450 (antisense kG*kG*kT*d[5mC]*dG*d[5mC]*d[5mC]*dG*d[5mC]*dG*dG*dG*dT*kG*k[5mC]*k[5mC]) [Compound 958450]”, the “YAP1 (% UTC)” value under setting [5] is 59 % UTC. Take “1076463 (kG*kA*kT*dT*dA*dG*dT*dA*dA*d[5mC]*dA*d[5mC]*dT*kG*kA*kT; antisense) [compound 1076463]”: the “YAP1 (% UTC)” value under setting [8] was 38 % UTC.

In the case of “958635 (antisense kG*kT*kT*dT*dA*dG*dG*d[5mC]*dA*dA*dG*d[5mC]*dA*kG*k[5mC]*kT) [Compound 958635]”, under setting [5], the “YAP1 (% UTC)” value is 43 % UTC. On to “958575 (kG*kG*k[5mC]*dT*dA*d[5mC]*dT*dG*dG*d[5mC]*dA*dA*dA*kT*kT*kA; antisense) [Compound 958575]”, for which the “YAP1 (% UTC)” value under setting [5] was determined as 9 % UTC. Consider “958541 (kG*kT*kA*dT*dT*d[5mC]*dT*dA*dT*d[5mC]*d[5mC]*dA*dG*kG*kG*kT; antisense) [Compound 958541]”, for which the “YAP1 (% UTC)” value under setting [7] was found to be 4 % UTC.

As for “1074254 (antisense kA*kT*k[5mC]*dT*dG*dG*dG*dA*d[5mC]*dA*dG*d[5mC]*dA*kT*kG*kG) [compound 1074254]”, the “YAP1 (% UTC)” value under setting [9] stood at 13 % UTC. Take “958481 (antisense kG*k[5mC]*kA*dA*d[5mC]*dT*dG*dG*d[5mC]*dT*dT*dA*dT*kG*kG*kA) [Compound 958481]”: under setting [7], the “YAP1 (% UTC)” value came out at 6 % UTC. As to “1074165 (k[5mC]*k[5mC]*k[5mC]*dA*dG*dG*d[5mC]*dG*dA*dG*d[5mC]*dG*dA*kG*kG*kG; antisense) [compound 1074165]”, the “YAP1 (% UTC)” value under setting [6] was determined as 90 % UTC. In the case of “1074542 (kA*kG*kG*d[5mC]*dA*d[5mC]*dT*dA*dT*d[5mC]*d[5mC]*dA*d[5mC]*kA*kG*kT; antisense) [compound 1074542]”, under setting [9], the “YAP1 (% UTC)” value turned out to be 21 % UTC.

For “958788 (antisense k[5mC]*kT*kG*dG*dG*d[5mC]*dA*dA*dA*dG*dT*dT*d[5mC]*k[5mC]*kT*k[5mC]) [Compound 958788]”, the “YAP1 (% UTC)” value under setting [2] was found to be 54 % UTC. Turning to “958762 (antisense kG*kA*kT*dT*dA*dG*dA*dG*dG*dA*d[5mC]*dT*d[5mC]*kA*kT*kT) [Compound 958762]”, the “YAP1 (% UTC)” value under setting [10] is 16 % UTC. For the substance “1075278 (antisense kT*kA*kT*dA*d[5mC]*dT*dA*dA*d[5mC]*dA*dT*dT*d[5mC]*kA*k[5mC]*kG) [compound 1075278]”, the “YAP1 (% UTC)” value under setting [9] amounted to 48 % UTC.

Turning to “958404 (antisense kG*k[5mC]*kA*d[5mC]*dA*d[5mC]*dA*dA*d[5mC]*dT*d[5mC]*dA*dG*kA*k[5mC]*kA) [Compound 958404]”, under setting [11], the “YAP1 (% UTC)” value turned out to be 52 % UTC. On the same count and under the same terms, the value for “958394 (antisense kT*kT*kG*dA*dA*dA*d[5mC]*d[5mC]*dT*dG*dA*dT*d[5mC]*k[5mC]*kT*kT) [Compound 958394]” was 54 % UTC. As for “958451 (antisense k[5mC]*kA*k[5mC]*dG*dA*dT*d[5mC]*dT*dG*dA*dT*dG*d[5mC]*k[5mC]*k[5mC]*kG) [Compound 958451]”, under setting [7], the “YAP1 (% UTC)” value stood at 10 % UTC. For “958399 (antisense kG*kA*k[5mC]*d[5mC]*dA*dA*d[5mC]*dT*dA*d[5mC]*dT*dT*dG*kA*kA*kG) [Compound 958399]”, under setting [11], the “YAP1 (% UTC)” value was found to be 45 % UTC. On to “958781 (antisense kG*kT*k[5mC]*dA*dT*d[5mC]*dT*dA*dT*dG*dT*dG*dT*k[5mC]*k[5mC]*kT) [Compound 958781]”, for which, under setting [7], the “YAP1 (% UTC)” value is 6 % UTC.

For the substance “1074989 (antisense kG*kA*kG*dG*dG*dA*dA*dA*dG*d[5mC]*dA*d[5mC]*dG*k[5mC]*k[5mC]*k[5mC]) [compound 1074989]”, the “YAP1 (% UTC)” value (Table 27, Yap1 mRNA by 3-10-3 cEt gapmers targeting SEQ ID NO.: 1, and 2, percent of untreated control) was found to be 105 % UTC. Consider “958580 (kA*kT*kA*dA*dT*d[5mC]*dT*dT*dA*dA*dT*d[5mC]*dT*kG*kT*kG; antisense) [Compound 958580]”, for which the “YAP1 (% UTC)” value under setting [5] was 4 % UTC. Turning to “1076052 (kG*k[5mC]*kA*dA*dT*dA*dA*dA*dG*d[5mC]*dT*dG*dA*kA*k[5mC]*kT; antisense) [compound 1076052]”, the “YAP1 (% UTC)” value under setting [4] stood at 23 % UTC.

As for “958724 (antisense kT*k[5mC]*kA*dG*dT*dT*dA*dT*d[5mC]*d[5mC]*dT*dA*dT*k[5mC]*k[5mC]*k[5mC]) [Compound 958724]”, the “YAP1 (% UTC)” value under setting [3] came to 2 % UTC. Turning to “1076148 (kT*kA*kT*dT*dA*dA*d[5mC]*dT*d[5mC]*dA*d[5mC]*dG*dA*kA*kG*kA; antisense) [compound 1076148]”, the “YAP1 (% UTC)” value under setting [4] is given as 52 % UTC. Regarding “1076207 (kA*kG*kT*d[5mC]*dA*dA*dT*dA*dA*dA*d[5mC]*dT*dT*kA*k[5mC]*k[5mC]; antisense) [compound 1076207]”, the “YAP1 (% UTC)” value under setting [8] stood at 58 % UTC. As to “958437 (antisense kA*kG*kG*d[5mC]*dA*d[5mC]*dT*d[5mC]*dG*dG*dA*d[5mC]*d[5mC]*kT*kG*k[5mC]) [Compound 958437]”, under setting [10], the “YAP1 (% UTC)” value came out at 84 % UTC.

For the substance “1074319 (antisense kG*k[5mC]*kT*dA*dA*d[5mC]*dT*d[5mC]*d[5mC]*dT*dG*dA*d[5mC]*kA*kT*kT) [compound 1074319]”, the “YAP1 (% UTC)” value under setting [8] is reported as 47 % UTC. As for “958467 (antisense kG*kG*kT*dG*dG*d[5mC]*dA*dG*d[5mC]*d[5mC]*dA*dA*dA*kA*k[5mC]*kA) [Compound 958467]”, under setting [10], the “YAP1 (% UTC)” value was 32 % UTC. “958820 (kG*kA*k[5mC]*d[5mC]*dA*dG*dT*dA*dA*dG*dA*dA*dG*k[5mC]*k[5mC]*kA; antisense) [Compound 958820]”: the “YAP1 (% UTC)” value under setting [5] is reported as 49 % UTC. “1076308 (kA*kG*kT*dA*dA*dT*dT*dA*d[5mC]*d[5mC]*dT*d[5mC]*dT*kA*kA*kT; antisense) [compound 1076308]”: the “YAP1 (% UTC)” value under setting [4] was determined as 32 % UTC. As for “958650 (kT*k[5mC]*kA*dA*dT*dT*dG*dA*dG*dT*d[5mC]*dT*dG*k[5mC]*kT*kA; antisense) [Compound 958650]”, the “YAP1 (% UTC)” value under setting [5] is on record as 3 % UTC. As for “958412 (antisense kA*k[5mC]*k[5mC]*dT*dT*dT*dA*d[5mC]*d[5mC]*dA*dA*dA*dA*k[5mC]*kG*kA) [Compound 958412]”, the “YAP1 (% UTC)” value under setting [11] came to 49 % UTC. “1075637 (antisense k[5mC]*k[5mC]*kA*d[5mC]*dA*dA*d[5mC]*d[5mC]*dT*dG*dT*d[5mC]*dA*kA*kT*kA) [compound 1075637]”: the “YAP1 (% UTC)” value under setting [6] was found to be 100 % UTC. Consider “1075732 (kA*kA*kT*dA*dA*d[5mC]*d[5mC]*dT*d[5mC]*dG*dA*dG*dT*kG*k[5mC]*kT; antisense) [compound 1075732]”, for which the “YAP1 (% UTC)” value under setting [4] is on record as 36 % UTC.

On to “1074668 (antisense kT*k[5mC]*k[5mC]*d[5mC]*dA*dA*d[5mC]*dA*dA*d[5mC]*dA*dT*dG*k[5mC]*kT*kA) [compound 1074668]”, for which the “YAP1 (% UTC)” value under setting [1] is given as 20 % UTC.
